# Test results published in patent US8822482B2, “Icotinib hydrochloride, synthesis, crystalline forms, pharmaceutical compositions, and uses thereof” (Beta Pharma, Inc., priority 2008, dated 2014).
# Structures can show the parent of a compound that is named as a salt.
# How the values were obtained:
# [1] = Pharmacokinetic study of the different crystalline forms and the free base in rats; type: in vivo, Wistar rats; settings: fasted Wistar rats, oral suspension, dose equivalent to 35 mg/kg Icotinib hydrochloride, plasma
# Experimental: Drugs and reagents: Icotinib (free base) and Icotinib hydrochloride crystalline forms I, II, III, and IV were ground to fine particles. The material content (purity) was not less than 99.0%. Sodium carboxymethyl cellulose was medical supply graded. Experimental animals: Wistar rats, male and female, 150-220 g each. Pharmaceutical preparation: Weigh the appropriate amount of each substance and add sodium carboxymethyl cellulose to 0.5%. Prepare a suspension at a final concentration of 3.5 mg/mL in water. Administration and sample collection: Each suspension was administered orally to fasted Wistar rats at a dose equivalent to 35 mg/kg Icotinib hydrochloride in a dose volume of 10 ml/kg. […] After purification, samples were analyzed by high performance liquid chromatography. The chromatographic conditions utilized C18-silane bonded silica as stationary phase, 0.02 mol/L of sodium dihydrogen phosphate in acetonitrile (40:60, using sodium hydroxide solution to adjust pH to 5.0) as the mobile phase and a detection wavelength of 334 nm.
# [2] = test system: human A431 (human epidermoid carcinoma cell line) xenograft tumor; assay: Tumor inhibition on human A431 xenograft in nude mice; type: in vivo, BALB/C nude mice
# Description: This was a preliminary study to compare Icotinib hydrochloride Crystalline Form I with erlotinib hydrochloride on inhibition of human A431 (human epidermoid carcinoma cell line) xenograft tumor.
# Methods: The high EGFR-expressing human A431 (human epidermoid carcinoma cell line) cell line was selected for the xenograft study.
# Tumor transplantation method: A431 human epidermoid cancer cells were inoculated subcutaneously in the right armpit of BALB/C nude mice to generate tumor nodules. These nodules were harvested, cut into 6 mm^3 blocks for routine inoculation and implanted into each mouse for the study. When tumors reached approximately 20 mm^3 in size (6-7 days), the animals were randomly divided into 4 groups of 6-9 animals/each group and body weights were recorded. The groups consisted of a control group (no drug treatment), an erlotinib hydrochloride treatment group (200 mg/kg) and high and low dose Icotinib hydrochloride Crystalline Form I treatment groups (200 and 50 mg/kg). Drugs were administered by oral gavage once daily; dosing frequency depended on the individual case for tumor growth. Tumor volume [tumor volume (V)=tumor size (L)×short diameter of tumor (S)^2/2] was measured using calipers once every 3 days. The animals were sacrificed 24-hour after the last drug administration and weighed. The tumor was removed and weighed to accurately calculate the tumor size. All group data was analyzed using the t test. If the p value was <0.05, it was considered to be statistically significant. Efficacy determination: tumor inhibition rate=[1−treatment group mean tumor weight (T)/control group mean tumor weight (C)]×100%
Structure (SMILES),The area under the concentration-time curve (0-infinity) [1],The area under the concentration-time curve (0-t) [1],body weight and appearance at experiment termination ([2]; A431 xenograft nude mice),"tumor inhibition rate ([2]; A431 xenograft, 200 mg/kg oral gavage once daily (later reduced to 100 mg/kg)) [%]",animals died ([2]; after 5 days at 200 mg/kg)
"C#Cc1cccc(Nc2ncnc3cc4c(cc23)OCCOCCOCCO4)c1 [Free base, 4-[(3-ethynyl-phenyl)amino]-6,7-benzo-12-crown-quinazoline, reference compound]",29.36,28.83,–,–,–
"C#Cc1cccc(Nc2ncnc3cc(OCCOC)c(OCCOC)cc23)c1 [erlotinib, Erlotinib Hydrochloride, reference compound]",–,–,lost weight and appeared sluggish,77.6,3 of 8
